# Test results published in PMC8603004 (EFSA Journal, 2021).
# What was measured:
# [1] = ADME of 14C‐3‐NOP following single or multiple oral administration; type: in vivo, rat; details: trial iv; for Radioactivity in plasma 48 h after the last dose: 50 mg/kg bw for five days
# [2] = system: Salmonella Typhimurium strains TA98, TA100, TA102, TA1535 and TA1537; assay: Ames microsuspension test; type: cell-based; details: 1.6 to 500 μg/plate, with and without metabolic activation
# [3] = system: Chinese hamster V79 cells; assay: In vitro micronucleus assay with CREST staining; type: cell-based
# Wistar Han rats = type: in vivo; details: males and females; effects on spermatogenesis and corpora lutea
# Wistar rats [4] = assay: 90‐day oral gavage study; type: in vivo
# Wistar rats [5] = assay: 52‐week oral gavage study; type: in vivo
# Wistar rats [6] = assay: 2‐year carcinogenicity study; type: in vivo
# Wistar rats [7] = assay: Two‐generation reproduction toxicity study; details: rat, in vivo
# Wistar rats [8] = assay: Prenatal developmental toxicity study; details: rat, in vivo
# Acute inhalation test = type: in vivo, Wistar rats; details: Wistar, rat, in vivo, inhaled
# Wistar rats [9] = assay: Acute inhalation test; type: in vivo
# [10] = Overall NOAEL and health‐based guidance value
# [11] = Third in vitro rumen fluid trial; details: for 3‐NOP concentration remaining after 16 h: 39°C
# [12] = Third in vitro rumen fluid trial; details: 39°C
# [13] = 5 x 50 mg/kg bw, 48 h after last administration, females
# [14] = 5 x 50 mg/kg bw, 48 h after last dose, males
smiles,measurement,setting,value
"O=[N+]([O-])OCCCO [3‐NOP, propan‐1,3‐diol‐mononitrate]",Radioactivity in plasma 48 h after the last dose,[1]; females,11.7 μg 3‐NOP‐eq/mL
same,Radioactivity in plasma 48 h after the last dose,[1]; males,14.4 μg 3‐NOP‐eq/mL
same,TR in adrenals,[1]; [13],57.0 μg 3‐NOP‐eq
same,TR in bone marrow,[1]; [13],21.3 μg 3‐NOP‐eq/g
same,TR in kidneys,[1]; [13],30.0 μg 3‐NOP‐eq
same,TR in liver,[1]; [13],32.3 μg 3‐NOP‐eq
same,TR in lungs,[1]; [13],20.7 μg 3‐NOP‐eq/g
same,TR in ovaries,[1]; [13],35.7 μg 3‐NOP‐eq
same,TR in pancreas,[1]; [13],21.6 μg 3‐NOP‐eq/g
same,TR in renal fat,[1]; [13],34.1 μg 3‐NOP‐eq
same,TR in spleen,[1]; [13],20.1 μg 3‐NOP‐eq/g
same,TR in thymus,[1]; [13],24.7 μg 3‐NOP‐eq/g
same,TR in adrenals,[1]; [14],51.2 μg 3‐NOP‐eq/g
same,TR in bone marrow,[1]; [14],34.1 μg 3‐NOP‐eq/g
same,TR in epididymis,[1]; [14],18.2 μg 3‐NOP‐eq/g
same,TR in kidneys,[1]; [14],34.8 μg 3‐NOP‐eq/g
same,TR in liver,[1]; [14],34.9 μg 3‐NOP‐eq/g
same,TR in lungs,[1]; [14],18.7 μg 3‐NOP‐eq/g
same,TR in pancreas,[1]; [14],20.0 μg 3‐NOP‐eq/g
same,TR in prostate,[1]; [14],24.6 μg 3‐NOP‐eq/g
same,TR in spleen,[1]; [14],22.9 μg 3‐NOP‐eq/g
same,TR in thymus,[1]; [14],28.5 μg 3‐NOP‐eq/g
same,Mean cumulative excretion via the expired air,[1]; 48 h after the last dose,about 70 % of the total administered radioactivity
same,Radioactivity in carcass,[1]; females,3.6%
same,Total mean recovery of the administered radioactivity,[1]; females,83.1%
same,Radioactivity in carcass,[1]; males,3.5%
same,Total mean recovery of the administered radioactivity,[1]; males,86.4%
same,Revertant colonies,[2],No significant increase in the mean number of revertant colonies
same,Micronuclei containing chromosome fragments (CREST staining),[3]; 540 μg/mL,79%
same,Micronucleus frequency,"[3]; with metabolic activation, 3 + 21 h, at 540, 570 and 600 μg/mL",statistically significant increase in micronuclei
same,NOAEL,Wistar Han rats,100 mg 3‐NOP/kg bw per day
same,NOAEL,Wistar rats [4]; females,300 mg/kg bw per day
same,NOAEL,"Wistar rats [4]; males, effects on spermatogenesis",100 mg 3‐NOP/kg bw per day
same,NOAEL,Wistar rats [5]; females,600 mg 3‐NOP/kg bw per day
same,NOAEL,Wistar rats [5]; males,100 mg 3‐NOP/kg bw per day
same,NOAEL,Wistar rats [6]; benign gastrointestinal mesenchymal tumours in small intestines,100 mg 3‐NOP/kg bw per day
same,Benign mesenchymal cell tumours (PWG),"Wistar rats [6]; females, 300 mg/kg bw per day",three
same,NOAEL for parental toxicity,Wistar rats [7],100 mg/kg bw per day
same,NOAEL for reproduction and developmental toxicity,Wistar rats [7],at least 100 mg/kg bw per day
same,Maternal NOAEL,Wistar rats [8],300 mg/kg bw per day
same,LC50 at 4 h,Acute inhalation test,> 5 µg/mL
same,Mortality,Wistar rats [9]; 1 and 5 mg/L,No mortality occurred
same,Acute inhalation toxicity class according to the GHS,"Wistar rats [9]; rat, in vivo",class 5
same,No observed adverse effect concentration (NOAEC),"Wistar rats [9]; rat, in vivo",exceed 5 mg/L
same,Skin irritation potential,Skin irritation study,skin irritant
same,"Health‐based guidance value (acceptable daily intake, ADI)","[10]; NOAEL 100 mg/kg bw per day, uncertainty factor of 100",1 mg 3‐NOP/kg bw per day
same,Overall NOAEL,"[10]; subchronic toxicity studies in rats, mice and dogs",100 mg/kg bw per day
same,3‐NOP concentration remaining after 16 h,"[11]; 1 mg/L, anaerobic, n = 6",0.9%
same,3‐NOP concentration remaining after 16 h,"[11]; aerobic control, n = 2",39.4%
same,Radioactivity in the non‐dissolved fractions,"[11]; sheep, goat and cow rumen fluids, 1 mg/L, 16 h at 39°C, anaerobic",≤ 5.5%
same,3‐NOP concentration remaining after 16 h,"[12]; 1 mg/L, anaerobic, n = 6",1.0%
same,3‐NOP concentration remaining after 16 h,"[12]; aerobic control, n = 2",31.9%
